Measured values published in PMC5585256 (Scientific Reports, 2017).
Marks after values point to notes of the source that are not given here.

How the values were obtained:
Format in all cases: biochemical
[1] = target: T1, WT hBChE (human plasma-derived butyrylcholinesterase) (Homo sapiens, UniProt P06276); assay: Inhibition of BTC hydrolysis activity of WT hBChE; conditions: for Fold increase in sensitivity relative to WT pBChE: WT hBChE vs WT pBChE
T1 construct: we first compared WT human plasma-derived (hBChE) to pBChE; from tissue; host or cells: human plasma
Method: (§1) To this end, BTC hydrolysis was analyzed following a 30-minute incubation with the inhibitors.
(§2) The four inhibitors were purchased from Sigma (St Louis, MO).
(§3) Preparations of BChE and variants thereof were incubated in 96-well plate format with indicated concentrations of the inhibitors for 30 min at room temperature followed by activity measurements based on modified Ellman assay using 1 mM BTC as the substrate. IC50 values were determined by non-linear regression (GraphPad Prism) fit according to Equation (4).

[2] = target: T2, WT pBChE (plant-derived human butyrylcholinesterase) (Homo sapiens, UniProt P06276); assay: Inhibition of BTC hydrolysis activity of WT pBChE; conditions: for Fold increase in sensitivity relative to WT pBChE: WT pBChE (reference)
T2 construct: barley alpha-amylase signal peptide (N); made in house; host or cells: Nicotiana benthamiana (transient, MagnICON/TMV vector, Agrobacterium infiltration)
Method: as §1, §2, §3

[3] = target: T3, pBChEV2 (F227A/S287G/A328W/Y332A) (Homo sapiens, UniProt P06276, A356W/F255A/S315G/Y360A); assay: Inhibition of BTC hydrolysis activity of pBChEV2; conditions: for Fold increase in sensitivity relative to WT pBChE: pBChEV2 vs WT pBChE
T3 construct: hexahistidine (C); barley alpha-amylase signal peptide (N); made in house; host or cells: Nicotiana benthamiana (transient, MagnICON/TMV vector)
Method: as §1, §2, §3

[4] = target: T4, pBChEV3 (A199S/S287G/A328W/Y332G) (Homo sapiens, UniProt P06276, A227S/A356W/S315G/Y360G); assay: Inhibition of BTC hydrolysis activity of pBChEV3; conditions: for Fold increase in sensitivity relative to WT pBChE: pBChEV3 vs WT pBChE
T4 construct: hexahistidine (C); barley alpha-amylase signal peptide (N); made in house; host or cells: Nicotiana benthamiana (transient, MagnICON/TMV vector)
Method: as §1, §2, §3

[5] = target: T5, pBChEV4 (A199S/F227A/S287G/A328W/Y332G) (Homo sapiens, UniProt P06276, A227S/A356W/F255A/S315G/Y360G); assay: Inhibition of BTC hydrolysis activity of pBChEV4; conditions: for Fold increase in sensitivity relative to WT pBChE: pBChEV4 vs WT pBChE
T5 construct: hexahistidine (C); barley alpha-amylase signal peptide (N); made in house; host or cells: Nicotiana benthamiana (transient, MagnICON/TMV vector)
Method: as §1, §2, §3

[6] = target: T6, pBChEV5 (F227A/S287G/A328W/Y332G) (Homo sapiens, UniProt P06276, A356W/F255A/S315G/Y360G); assay: Inhibition of BTC hydrolysis activity of pBChEV5; conditions: for Fold increase in sensitivity relative to WT pBChE: pBChEV5 vs WT pBChE
T6 construct: hexahistidine (C); barley alpha-amylase signal peptide (N); made in house; host or cells: Nicotiana benthamiana (transient, MagnICON/TMV vector)
Method: as §1, §2, §3

[7] = target: T7, WT pBChE (Homo sapiens, UniProt P06276); assay: Inhibition rate constant for paraoxon, WT pBChE; conditions: enzyme WT pBChE
T7 construct: barley alpha-amylase signal peptide (N); made in house; host or cells: Nicotiana benthamiana (transient, MagnICON/TMV vector, Agrobacterium infiltration)

[8] = target: T8, pBChEV4 (Homo sapiens, UniProt P06276, A227S/A356W/F255A/S315G/Y360G); assay: Inhibition rate constant for paraoxon, pBChEV4; conditions: enzyme pBChEV4
T8 construct: hexahistidine (C); barley alpha-amylase signal peptide (N); made in house; host or cells: Nicotiana benthamiana (transient, MagnICON/TMV vector)

[9] = Radiometric (−)-cocaine hydrolysis assay; conditions: substrate (−)-cocaine

T4 sequence (P06276 29-602 A227S/S315G/A356W/Y360G): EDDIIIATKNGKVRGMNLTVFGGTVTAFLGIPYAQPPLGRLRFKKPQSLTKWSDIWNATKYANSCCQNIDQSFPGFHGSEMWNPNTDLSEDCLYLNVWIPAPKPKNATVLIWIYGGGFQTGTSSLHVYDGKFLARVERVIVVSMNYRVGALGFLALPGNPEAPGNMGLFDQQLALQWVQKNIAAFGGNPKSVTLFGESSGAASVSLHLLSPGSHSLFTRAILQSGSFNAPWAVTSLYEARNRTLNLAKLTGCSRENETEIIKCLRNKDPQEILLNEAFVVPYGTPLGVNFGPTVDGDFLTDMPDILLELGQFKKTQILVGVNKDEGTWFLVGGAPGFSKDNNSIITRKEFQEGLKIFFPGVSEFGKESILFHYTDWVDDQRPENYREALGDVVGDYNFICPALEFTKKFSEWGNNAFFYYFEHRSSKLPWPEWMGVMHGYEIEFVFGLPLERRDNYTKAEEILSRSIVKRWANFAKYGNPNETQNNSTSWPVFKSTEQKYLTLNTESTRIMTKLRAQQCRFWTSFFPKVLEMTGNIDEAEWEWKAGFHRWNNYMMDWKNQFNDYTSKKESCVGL
T6 sequence (P06276 29-602 F255A/S315G/A356W/Y360G): as the sequence (P06276 29-602 A227S/S315G/A356W/Y360G) above, with S199A, F227A counted along it
T5 sequence (P06276 29-602 A227S/F255A/S315G/A356W/Y360G): as the sequence (P06276 29-602 A227S/S315G/A356W/Y360G) above, with F227A counted along it
T3 sequence (P06276 29-602 F255A/S315G/A356W/Y360A): as the sequence (P06276 29-602 A227S/S315G/A356W/Y360G) above, with S199A, F227A, G332A counted along it
T8 sequence (P06276 29-602 A227S/F255A/S315G/A356W/Y360G): as the sequence (P06276 29-602 A227S/S315G/A356W/Y360G) above, with F227A counted along it

CN(C)C(=O)Oc1cccc([N+](C)(C)C)c1 [Neostigmine, [3-(dimethylcarbamoyloxy)phenyl]-trimethylazanium;bromide]
IC50 [1]: 162 nM | Fold increase in sensitivity relative to WT pBChE [1]: (1)^**** fold | IC50 [2]: 229 nM | Fold increase in sensitivity relative to WT pBChE [2]: (1) fold | IC50 [3]: 17.8 nM | Fold increase in sensitivity relative to WT pBChE [3]: (13)^**** fold | Fold increase in sensitivity relative to WT pBChE ([3]; listed as neostigmine): 10–20 fold | IC50 [4]: 204 nM | Fold increase in sensitivity relative to WT pBChE [4]: (1) fold | Fold increase in sensitivity relative to WT pBChE ([4]; listed as neostigmine): near WT levels | IC50 [5]: 155 nM | Fold increase in sensitivity relative to WT pBChE [5]: (1)^**** fold | Fold increase in sensitivity relative to WT pBChE ([5]; listed as neostigmine): near WT levels | IC50 [6]: 13.2 nM | Fold increase in sensitivity relative to WT pBChE [6]: (17)^**** fold | Fold increase in sensitivity relative to WT pBChE ([6]; listed as neostigmine): 10–20 fold

CCOP(=O)(OCC)Oc1ccc([N+](=O)[O-])cc1 [Paraoxon, diethyl (4-nitrophenyl) phosphate]
Fold increase in sensitivity relative to WT pBChE [1]: (0.9) fold | Fold increase in sensitivity relative to WT pBChE [2]: (1) fold | Fold increase in sensitivity relative to WT pBChE [3]: (38)^**** fold | Fold increase in sensitivity relative to WT pBChE ([3]; listed as paraoxon): 40–50 fold | Fold increase in sensitivity relative to WT pBChE [4]: (3)^**** fold | Fold increase in sensitivity relative to WT pBChE ([4]; listed as paraoxon): 3–7 fold | Fold increase in sensitivity relative to WT pBChE [5]: (6)^**** fold | Fold increase in sensitivity relative to WT pBChE ([5]; listed as paraoxon): 3–7 fold | Fold increase in sensitivity relative to WT pBChE [6]: (46)^**** fold | Fold increase in sensitivity relative to WT pBChE ([6]; listed as paraoxon): 40–50 fold | inhibition rate constant (ki) [7]: 52300 M⁻¹ s⁻¹ | inhibition rate constant (ki) [8]: 283000 M⁻¹ s⁻¹

B1: WT pBChE (protein, UniProt P06276 29-602, looked up)
Cholinesterase: EDDIIIATKNGKVRGMNLTVFGGTVTAFLGIPYAQPPLGRLRFKKPQSLTKWSDIWNATKYANSCCQNIDQSFPGFHGSEMWNPNTDLSEDCLYLNVWIPAPKPKNATVLIWIYGGGFQTGTSSLHVYDGKFLARVERVIVVSMNYRVGALGFLALPGNPEAPGNMGLFDQQLALQWVQKNIAAFGGNPKSVTLFGESAGAASVSLHLLSPGSHSLFTRAILQSGSFNAPWAVTSLYEARNRTLNLAKLTGCSRENETEIIKCLRNKDPQEILLNEAFVVPYGTPLSVNFGPTVDGDFLTDMPDILLELGQFKKTQILVGVNKDEGTAFLVYGAPGFSKDNNSIITRKEFQEGLKIFFPGVSEFGKESILFHYTDWVDDQRPENYREALGDVVGDYNFICPALEFTKKFSEWGNNAFFYYFEHRSSKLPWPEWMGVMHGYEIEFVFGLPLERRDNYTKAEEILSRSIVKRWANFAKYGNPNETQNNSTSWPVFKSTEQKYLTLNTESTRIMTKLRAQQCRFWTSFFPKVLEMTGNIDEAEWEWKAGFHRWNNYMMDWKNQFNDYTSKKESCVGL
modifications: plant-expressed
k cat [9]: 0.0433 s⁻¹
